Data set [1] addresses Glyceraldehyde-3-phosphate dehydrogenase (Homo sapiens, UniProt P04406).
Data set [2] in a line: Luminescence Cell-Based Dose Confirmation HTS to Identify Inhibitors of Platelet Dense Granule Release. [Related pubchem assays: 1663 (Primary HTS), 1678 (Summary of Project)]. The format is functional.
In data set [3] the target is Luciferin 4-monooxygenase (Photinus pyralis, UniProt P08659). The data set is described as follows: firefly luciferase enzyme inhibitors, dose response, biochemical, luminescence (AID 1891).
Sequence of Luciferin 4-monooxygenase (P08659 whole entry): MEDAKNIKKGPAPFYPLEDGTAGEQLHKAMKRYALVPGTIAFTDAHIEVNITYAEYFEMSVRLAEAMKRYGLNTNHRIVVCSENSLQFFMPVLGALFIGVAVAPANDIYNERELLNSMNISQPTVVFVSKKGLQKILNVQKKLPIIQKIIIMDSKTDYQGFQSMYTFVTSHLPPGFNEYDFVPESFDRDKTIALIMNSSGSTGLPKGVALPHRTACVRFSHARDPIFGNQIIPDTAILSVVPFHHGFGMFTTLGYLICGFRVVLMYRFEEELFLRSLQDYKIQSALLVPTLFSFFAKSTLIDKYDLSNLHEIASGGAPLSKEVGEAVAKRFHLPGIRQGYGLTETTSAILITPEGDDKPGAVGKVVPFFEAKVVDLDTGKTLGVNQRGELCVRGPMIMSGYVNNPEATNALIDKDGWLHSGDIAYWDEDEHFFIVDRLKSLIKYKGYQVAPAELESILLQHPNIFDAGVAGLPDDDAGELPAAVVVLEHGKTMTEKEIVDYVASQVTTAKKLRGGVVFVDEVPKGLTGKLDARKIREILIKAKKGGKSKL
The target in the next data set is Large T antigen (Simian virus 40, UniProt P03070). The format is functional, Betapolyomavirus macacae.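 Note: Confirmatory-stage PubChem screen for compounds that inhibit SV40 T antigen.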
Sequence of Large T antigen (P03070 whole entry): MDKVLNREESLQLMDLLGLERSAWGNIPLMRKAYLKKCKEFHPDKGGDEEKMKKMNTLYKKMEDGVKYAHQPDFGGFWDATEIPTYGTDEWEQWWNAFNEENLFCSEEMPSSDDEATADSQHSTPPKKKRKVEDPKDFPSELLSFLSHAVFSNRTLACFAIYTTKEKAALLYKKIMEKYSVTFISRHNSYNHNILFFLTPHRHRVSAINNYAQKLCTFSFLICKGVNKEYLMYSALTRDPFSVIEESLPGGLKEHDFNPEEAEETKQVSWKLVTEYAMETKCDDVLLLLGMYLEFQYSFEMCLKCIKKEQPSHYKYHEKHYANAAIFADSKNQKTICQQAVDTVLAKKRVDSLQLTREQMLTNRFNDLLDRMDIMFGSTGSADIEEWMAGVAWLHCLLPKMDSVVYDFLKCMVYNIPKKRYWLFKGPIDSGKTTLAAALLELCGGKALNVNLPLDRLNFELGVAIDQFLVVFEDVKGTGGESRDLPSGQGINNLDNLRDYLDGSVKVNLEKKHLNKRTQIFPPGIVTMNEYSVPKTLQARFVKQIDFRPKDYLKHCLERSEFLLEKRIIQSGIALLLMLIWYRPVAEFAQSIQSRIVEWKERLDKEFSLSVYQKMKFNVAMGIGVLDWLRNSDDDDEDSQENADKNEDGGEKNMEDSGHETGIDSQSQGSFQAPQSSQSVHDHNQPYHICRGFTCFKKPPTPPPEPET
The target in a further data set is Cytochrome P450 2C9 (Homo sapiens, UniProt P11712).
Sequence of Cytochrome P450 2C9 (P11712 whole entry): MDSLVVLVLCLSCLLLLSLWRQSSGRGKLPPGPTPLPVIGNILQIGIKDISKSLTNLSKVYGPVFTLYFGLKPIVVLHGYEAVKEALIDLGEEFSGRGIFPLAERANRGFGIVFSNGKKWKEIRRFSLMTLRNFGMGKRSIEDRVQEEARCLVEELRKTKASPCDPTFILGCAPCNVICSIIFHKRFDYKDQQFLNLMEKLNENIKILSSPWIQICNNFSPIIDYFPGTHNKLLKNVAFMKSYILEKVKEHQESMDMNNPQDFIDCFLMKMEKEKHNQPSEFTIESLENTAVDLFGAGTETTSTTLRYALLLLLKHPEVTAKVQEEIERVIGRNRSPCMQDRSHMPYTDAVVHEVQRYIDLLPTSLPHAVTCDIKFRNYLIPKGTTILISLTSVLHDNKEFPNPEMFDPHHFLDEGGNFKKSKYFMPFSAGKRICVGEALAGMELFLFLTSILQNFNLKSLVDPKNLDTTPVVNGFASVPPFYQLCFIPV
The next data set addresses T1, Cytochrome P450 1A2 (Homo sapiens, UniProt P05177).
T1 sequence (P05177 whole entry): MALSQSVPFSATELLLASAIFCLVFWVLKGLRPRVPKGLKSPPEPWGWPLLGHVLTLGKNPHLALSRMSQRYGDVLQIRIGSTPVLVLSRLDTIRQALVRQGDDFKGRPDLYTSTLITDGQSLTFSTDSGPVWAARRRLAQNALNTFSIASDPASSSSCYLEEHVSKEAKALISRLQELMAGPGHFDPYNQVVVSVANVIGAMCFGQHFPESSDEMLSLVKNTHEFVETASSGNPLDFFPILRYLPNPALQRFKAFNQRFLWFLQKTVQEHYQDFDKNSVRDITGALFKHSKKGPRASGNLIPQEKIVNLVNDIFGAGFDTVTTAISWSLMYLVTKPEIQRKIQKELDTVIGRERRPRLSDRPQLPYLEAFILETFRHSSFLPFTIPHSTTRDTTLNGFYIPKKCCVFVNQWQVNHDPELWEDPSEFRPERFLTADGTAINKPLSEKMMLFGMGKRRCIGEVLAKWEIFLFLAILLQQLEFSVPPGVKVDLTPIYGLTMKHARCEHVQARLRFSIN

Data set [4] addresses T2, Short transient receptor potential channel 4 (Mus musculus, UniProt Q9QUQ5).
T2 sequence (Q9QUQ5 whole entry): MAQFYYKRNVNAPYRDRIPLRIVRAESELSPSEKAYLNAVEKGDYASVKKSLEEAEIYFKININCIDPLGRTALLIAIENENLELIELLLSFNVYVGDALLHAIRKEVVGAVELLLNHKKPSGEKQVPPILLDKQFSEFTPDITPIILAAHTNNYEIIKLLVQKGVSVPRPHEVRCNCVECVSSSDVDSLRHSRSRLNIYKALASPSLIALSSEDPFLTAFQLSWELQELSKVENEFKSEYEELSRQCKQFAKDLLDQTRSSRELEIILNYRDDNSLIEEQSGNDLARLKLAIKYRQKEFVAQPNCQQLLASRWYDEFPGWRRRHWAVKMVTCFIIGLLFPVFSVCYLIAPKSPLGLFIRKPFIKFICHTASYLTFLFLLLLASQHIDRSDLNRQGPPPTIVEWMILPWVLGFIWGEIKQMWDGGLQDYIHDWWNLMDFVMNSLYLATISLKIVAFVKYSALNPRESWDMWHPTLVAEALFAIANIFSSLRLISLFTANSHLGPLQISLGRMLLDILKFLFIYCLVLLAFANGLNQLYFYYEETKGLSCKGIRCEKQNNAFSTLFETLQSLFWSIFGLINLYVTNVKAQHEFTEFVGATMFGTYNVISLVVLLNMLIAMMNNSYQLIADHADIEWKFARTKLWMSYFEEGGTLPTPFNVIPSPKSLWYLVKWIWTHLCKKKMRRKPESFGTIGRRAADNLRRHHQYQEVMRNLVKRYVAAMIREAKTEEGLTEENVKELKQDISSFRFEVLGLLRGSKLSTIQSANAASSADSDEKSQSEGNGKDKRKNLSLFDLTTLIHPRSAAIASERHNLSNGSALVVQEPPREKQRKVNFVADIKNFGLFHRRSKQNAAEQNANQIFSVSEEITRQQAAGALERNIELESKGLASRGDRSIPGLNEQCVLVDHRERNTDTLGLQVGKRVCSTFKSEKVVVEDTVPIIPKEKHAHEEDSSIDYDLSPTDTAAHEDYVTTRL
Put plainly: mouse TRPC4 channel activators, dose response, cell-based, HEK293 TRPC4/mu-opioid, Fluo-4 calcium (AID 434937). It counts as functional.

Data set [5] can be described thus: Luminescence Cell-Based Dose Response HTS to Identify Inhibitors of 5'UTR Stem-Loop Driven Prion Protein mRNA Translation in H4 Neuroglioblastoma Cells. [Related pubchem assays: 1827 (Project Summary), 1813 (Primary HTS)]. The format is functional.
The target in data set [6] is T3, Microphthalmia-associated transcription factor (Homo sapiens, UniProt O75030).
T3 sequence (O75030 whole entry): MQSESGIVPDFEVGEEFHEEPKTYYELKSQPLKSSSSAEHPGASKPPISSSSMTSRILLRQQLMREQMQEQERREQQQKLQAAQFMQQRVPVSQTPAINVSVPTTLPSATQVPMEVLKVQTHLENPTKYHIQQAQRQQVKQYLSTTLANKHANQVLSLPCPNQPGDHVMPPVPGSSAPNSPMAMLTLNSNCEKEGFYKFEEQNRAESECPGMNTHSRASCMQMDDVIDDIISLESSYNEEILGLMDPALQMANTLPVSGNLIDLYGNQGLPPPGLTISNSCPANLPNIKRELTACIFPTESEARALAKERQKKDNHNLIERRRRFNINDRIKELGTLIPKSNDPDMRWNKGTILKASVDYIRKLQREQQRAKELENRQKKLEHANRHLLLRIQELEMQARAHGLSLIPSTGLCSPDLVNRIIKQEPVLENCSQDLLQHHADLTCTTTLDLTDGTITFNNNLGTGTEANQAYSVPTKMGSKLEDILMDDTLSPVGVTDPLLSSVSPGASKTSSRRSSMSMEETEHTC
The data set is described as follows: TRPM1 promoter luciferase signal decrease, dose response, MITF inhibitor project, cell-based, SK-MEL-5, cherry-picked, set 3 (AID 493073).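 Note: SK-MEL-5 melanoma cells with luciferase driven by the MITF target TRPM1 promoter.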 It counts as functional.

Data set [7] in a line: inhibitors of firefly luciferase expression or activity, dose response, H4 neuroglioma cells, luminescence (AID 1990). The format is functional, cell-based.
A short description of data set [8]: inhibitors of SNCA 5'UTR-driven reporter translation, confirmation, H4 neuroglioma cells, luminescence (AID 1988). The format is functional, cell-based.
Another data set has as its target Cytochrome P450 3A4 (Homo sapiens, UniProt P08684).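 Note: CYP3A4 tested as one member of a cytochrome P450 panel screen.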
Data set [9] concerns BJ. Put plainly: cytotoxicity toward BJ-TERT fibroblasts, dose response, cell-based, RAS-independent, luminescence (AID 1933). The settings on record: Homo sapiens. The format is functional.
The test system of data set [10] is BJ. Put plainly: cells. The format is functional, cell-based. The settings on record: Homo sapiens.
Data set [11] deals with BJ. Put plainly: cytotoxicity toward BJ-TERT-LT-ST fibroblasts, dose response, cell-based, RAS-independent, luminescence (AID 1935).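 Note: BJ fibroblasts immortalized with TERT plus LT and ST oncogenes.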 The settings on record: Homo sapiens. The format is functional.
Data set [12] can be described thus: cytotoxicity toward DRD oncogenic fibroblasts, dose response, cell-based, non-viral oncogenic, luminescence (AID 1934). It counts as functional. The settings on record: Homo sapiens.
Data set [13] is described as follows: growth suppression of beta-catenin-knockout colon cells, dose response, cell-based, HCT116, human colon tumor (AID 1045).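 Note: HCT116 colon tumor cells with beta catenin knocked out; cells exposed to compound for 60 hours.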 It counts as functional.
The next data set has as its system INS1. The data set is described as follows: beta cell apoptosis inhibitors, cytokine rescue, dose response, luminescence, retest (AID 449756).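 Note: cell death triggered by IL-1 beta plus TNF-alpha plus IFN-gamma mixture; protective hits raise ATP signal compared with cytokine alone wells.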 It counts as functional, cell-based. The settings on record: Rattus norvegicus.
The nature of data set [14]: C. albicans growth with fluconazole, confirmation, fluorescence, retest (AID 2467). The format is functional, cell-based.
Data set [15] can be described thus: growth suppression of PTEN-null colon cells, dose response, cell-based, HCT116 PTEN knockout (AID 1047).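 Note: HCT116 colon tumor cells with PTEN knocked out; cells exposed to compound for 60 hours before readout; potency for loss of cell viability measured by luminescence.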 It counts as functional.
Data set [16] is described as follows: NIH-3T3 fibroblast cytotoxicity, dose response, cytotoxicity control, cell-based, fluorescence, Alamar Blue, secondary assay (AID 2327).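 Note: NIH-3T3 mouse fibroblasts cultured with fluconazole at 8 µg/mL.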 It counts as functional. On the technique in general: Alamar Blue is a resazurin reagent that responds to reducing activity.
The target in data set [17] is T4, Rac GTPase-activating protein 1 (Homo sapiens, UniProt Q9H0H5).
T4 sequence (Q9H0H5 whole entry): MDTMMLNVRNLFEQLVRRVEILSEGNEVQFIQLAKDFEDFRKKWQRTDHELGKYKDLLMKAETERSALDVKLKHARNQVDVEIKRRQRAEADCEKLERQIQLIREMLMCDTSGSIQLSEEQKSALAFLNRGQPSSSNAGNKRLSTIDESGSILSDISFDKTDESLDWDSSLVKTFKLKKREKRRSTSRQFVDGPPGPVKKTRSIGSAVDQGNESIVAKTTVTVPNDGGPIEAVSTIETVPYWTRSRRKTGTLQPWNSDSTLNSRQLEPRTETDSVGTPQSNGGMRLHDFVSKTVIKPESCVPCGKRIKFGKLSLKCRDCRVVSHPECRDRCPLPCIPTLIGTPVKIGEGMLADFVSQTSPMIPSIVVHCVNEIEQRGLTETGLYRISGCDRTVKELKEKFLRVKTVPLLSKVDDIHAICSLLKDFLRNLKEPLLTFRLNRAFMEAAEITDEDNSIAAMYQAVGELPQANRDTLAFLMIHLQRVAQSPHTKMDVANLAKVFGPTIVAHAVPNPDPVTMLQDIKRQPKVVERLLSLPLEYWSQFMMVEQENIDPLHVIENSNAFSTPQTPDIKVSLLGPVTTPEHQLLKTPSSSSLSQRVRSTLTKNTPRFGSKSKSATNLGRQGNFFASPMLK
The data set is described as follows: MgcRacGAP GTPase-activating activity inhibitors, confirmation, biochemical, ADP Hunter fluorescence, primary and confirmatory (AID 624330). The format is functional.

As a reminder, the IC50 is the concentration that inhibits the measured activity by half. The EC50 is the midpoint of the concentration-response curve. What is called AC50 is the midpoint of the concentration-response curve, whichever way the signal moves.

Active and inactive are the calls of the source.

Sequence of Cytochrome P450 3A4 (P08684 whole entry): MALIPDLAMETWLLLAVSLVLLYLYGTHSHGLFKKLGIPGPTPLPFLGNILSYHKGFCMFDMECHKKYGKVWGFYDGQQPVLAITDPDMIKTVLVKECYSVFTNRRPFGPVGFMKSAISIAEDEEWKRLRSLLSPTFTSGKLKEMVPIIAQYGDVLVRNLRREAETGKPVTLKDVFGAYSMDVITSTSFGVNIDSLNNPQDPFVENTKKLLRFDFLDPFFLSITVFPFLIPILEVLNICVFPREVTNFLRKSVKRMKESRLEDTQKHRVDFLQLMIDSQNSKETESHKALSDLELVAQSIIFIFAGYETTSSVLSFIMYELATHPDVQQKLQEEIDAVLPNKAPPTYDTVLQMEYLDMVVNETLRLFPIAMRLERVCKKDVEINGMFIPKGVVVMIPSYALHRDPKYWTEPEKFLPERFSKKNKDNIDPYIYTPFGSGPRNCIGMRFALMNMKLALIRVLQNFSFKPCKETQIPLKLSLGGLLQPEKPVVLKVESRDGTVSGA
Sequence of Glyceraldehyde-3-phosphate dehydrogenase (P04406 whole entry): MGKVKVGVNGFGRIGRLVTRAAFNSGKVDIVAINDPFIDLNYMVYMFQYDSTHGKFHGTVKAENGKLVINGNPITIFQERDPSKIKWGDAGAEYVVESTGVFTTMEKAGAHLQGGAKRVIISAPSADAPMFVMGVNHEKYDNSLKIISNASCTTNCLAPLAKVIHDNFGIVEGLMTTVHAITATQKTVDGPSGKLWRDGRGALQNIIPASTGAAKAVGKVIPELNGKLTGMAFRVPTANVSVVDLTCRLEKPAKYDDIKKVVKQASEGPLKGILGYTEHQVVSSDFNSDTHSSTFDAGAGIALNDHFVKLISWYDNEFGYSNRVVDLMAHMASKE

For `COc1cccc(N2C(=O)C(Cl)=C(N3CCN(Cc4ccc5c(c4)OCO5)CC3)C2=O)c1`, in [1], the IC50 was > 50 µM (inconclusive).
As for `O=C(CN(CCN1CCOCC1)C(=O)Cn1nnc(-c2ccc(F)cc2)n1)NC1CCCCC1`, the EC50 in data set [2] and in [3] was > 112 µM (not active) each time.
Take `CN1CCc2c(sc3nc(SCC(=O)N4CCCCC4)n(-c4ccccc4)c(=O)c23)C1`: the EC50 in data set [2] was 12.9 µM (active); in data set [3], > 112 µM (not active).
Turning to `CN(C)c1ccc(NC(=O)C(=O)C2C(=O)Nc3ccccc32)cc1` (centres undefined), the IC50 on Large T antigen is 25.9 µM (active).
Same read-out and setting: then `COc1cc(OC)c(C2CC(=O)N3CN(c4ccc(C)cc4)CSC3=C2C#N)cc1OC` (centres undefined), with 43.4 µM (active).
`COc1ccccc1CN1CC[C@@]2(CCCN(C(=O)c3c(C)noc3C)C2)C1`: the half-maximal activity concentration (AC50) entry on Cytochrome P450 2C9 was “inconclusive”.
Turning to `Cc1csc(NC(=O)CCNS(=O)(=O)c2ccc3c(c2)c(=O)n(C)c(=O)n3C)n1`, the AC50 entry at Cytochrome P450 2C9 was “inconclusive”; at Cytochrome P450 1A2, 0.00631 µM (inconclusive).
`Cc1ccc(NC(=O)NCC(c2ccccc2)N(C)C)cc1` (centres undefined): the EC50 in data set [4] was 0.004 µM (active).
Take `C=CCSc1nc(C)cc(/C=C\c2ccccc2)c1C#N`: the AC50 entry on Cytochrome P450 2C9 was “inconclusive”.
Regarding `COc1ccc(OCC(=O)Nc2ccc3c(c2)nc(CN2CCCC2)n3C)cc1`, the half-maximal effective concentration (EC50) in data set [2] and in data set [3] was > 112 µM (not active) each time.
As to `O=C(Nc1ccc(S(=O)(=O)N2CCCCCC2)cc1)c1n[nH]cc1[N+](=O)[O-]`, the figures for the EC50 in data set [5], in data set [7] and in data set [8] were 53.1 µM (active), 6.09 µM (active) and 8.3 µM (active), respectively. Also, in data set [6], the AC50 was 4.02 µM (active).
With `O=C(CCCCCn1nnc2ccccc2c1=O)N[C@H](C(=O)O)c1ccccc1`, the EC50 in data set [2] and in data set [3] was > 112 µM (not active) throughout.
As to `COc1cc(/C=C/C(=O)N2CCN(CC(O)COc3ccccc3)CC2)cc(OC)c1OC.Cl` (centres undefined), the AC50 entry on Cytochrome P450 2C9 is “inconclusive”; on Cytochrome P450 3A4, 10 µM (inconclusive).
For `O=C(NCCc1ccccn1)c1ccc(COc2ccccc2)o1`, in data set [4], the concentration giving a half-maximal response (EC50) was 4.73 µM (active).
As for `O=C(Nc1cccc(F)c1)N1CC2(CCN(C(=O)c3cc(C(F)(F)F)cc(C(F)(F)F)c3)CC2)C1`, the values for the AC50 entry at Cytochrome P450 2C9 and on Cytochrome P450 3A4 were “inconclusive” and 39.8 µM (inconclusive), respectively.
As to `COc1ccc(C(=O)c2ccc(N3CCOCC3)c([N+](=O)[O-])c2)cc1`, the EC50 (in the data set with BJ [9]; in the data set on BJ [10]; with BJ [11]; in [12]) was > 150 µM (not active) throughout.
Take `COc1cc(C(=O)Nc2nc(C)c(Cc3ccc4c(c3)OCO4)s2)cc(OC)c1OC`: the EC50 with BJ [9] is 2.49 µM (active); with BJ [10] it was 133 µM (active); in the data set on BJ [11] it was 1.68 µM (active); in data set [12], 2.04 µM (active).
For the molecule `COc1cccc(C(=O)Oc2c(CN3CCOCC3)cc(Cl)c3cccnc23)c1`, the AC50 in [6] is 9.9 µM (active); in the data set with INS1, 4.85 µM (active). Moreover, the EC50 in data set [13] was 2.48 µM (active); in data set [14], 1.83 µM (active); in data set [15], 3.38 µM (active); in data set [16], > 75 µM (inactive).
As to `C=CCn1c(CCNC(=O)C(C)(C)C)nc2ccccc21`, the EC50 in [4] was 3.76 µM (active).
In the case of `COc1cc(/C=N/N=C(\N)c2nonc2N)ccc1O`, the values for the EC50 in [2] and in [3] were 7.47 µM (active) and 52.8 µM (active), respectively. Also, the figures for the IC50 (at Large T antigen; in data set [17]) were 12.2 µM (active) and 18.9 µM (active), respectively.

Values taken from ChEMBL document CHEMBL1201862, “PubChem BioAssay data set” (2004).
